In patent US10577322B2, “5-methoxytryptophan and its derivatives and uses thereof” (National Health Research Institutes, priority 2015, dated 2020):

Tests used:
[1] = system: TNF-α; assay: LPS-induced TNF-α production in RAW264.7 cells; type: cell-based, mouse; conditions: data not shown
[2] = system: NF-κB; assay: NF-κB promoter-luciferase assay in RAW264.7 cells; type: cell-based, mouse; conditions: LPS 8 h
Experimental: (§1) RAW264.7 macrophages were cotransfected with COX-2 promoter-luciferase, IL-6 promoter-luciferase constructs as previously described (Lee, G. L., et al.) or p5xNF-κB-luciferase (Stratagene) and pcDNA3.1-β-galactosidase plasmids using FuGENE 6 (Roche). After overnight transfection, the cells were incubated with or without LPS in the presence or absence of 5-MTP for 8 h. After treatment, cells were lysed, and luciferase activity was measured using an assay kit (Promega). β-galactosidase activity was used to normalize the data.
After pretreating RAW264.7 cells with different concentrations of 5-MTP for 30 min, cells were stimulated with LPS for 8 h. NF-κB promoter activity as measured by NF-κB promoter-luciferase assay.

[3] = system: COX-2; assay: LPS-induced COX-2 protein expression in RAW264.7 cells (immunoblot); type: cell-based, mouse; conditions: LPS 8 h
Experimental: Mouse RAW264.7 macrophages were from the American Type Culture Collection and cultured in DMEM containing 10% FBS. […] The duration of LPS (100 ng/ml) treatment varied depending on the experiment.
Cellular protein were resolved by 5% to 20% SDS-PAGE and transferred to nitrocellulose membranes and blotted with specific antibodies as previously described (Lee, G. L., et al.).
After pretreating mouse macrophage RAW264.7 cells with different concentrations of 5-MTP for 30 min, cells were stimulated with LPS for 8 h. Cell lysates were immunoblotted with antibodies for COX-2 or β-actin. In addition, RAW264.7 cells were transfected with COX-2 promoter-luciferase plasmid. After 24 h transfection, the cells were incubated with LPS for 8 h. Luciferase activity was measured.

[4] = system: proinflammatory cytokines; assay: LPS-induced proinflammatory cytokines in peritoneal macrophages (ELISA); type: cell-based, mouse; conditions: LPS 24 h
Experimental: For peritoneal macrophage isolation, C57BL/6J mice were injected intraperitoneally with 2 ml of 4% thioglycollate. Four days after injection, the peritoneal cavity was washed with 5 ml of ice-cold RPMI1640 medium, and cells from the peritoneal exudates were collected by centrifugation, and suspended in RPMI1640 medium, then seeded on 15-cm dishes and allowed to adhere for 4 h. Floating cells were washed out, and adherent cells were used as peritoneal macrophages in the experiments. The cells were incubated with or without LPS (100 ng/ml) for the indicated time before each experiment, as in the protocol for the RAW264.7 cells.
(§2) Cytokine levels in the culture supernatants and serum were determined in microtiter plates (96-well) by a specific sandwich ELISA (Biosource) as previously described (Wu, J. Y. & Kuo, C. C. Pivotal role of ADP-ribosylation factor 6 in Toll-like receptor 9-mediated immune signaling. J Biol Chem 287, 4323-4334 (2012)) (Lee, G. L., et al. TLR 2 induces vascular smooth muscle cell migration through cAMP response element-binding protein-mediated interleukin-6 production. Arterioscler Thromb Vasc Biol 32, 2751-2760 (2012); hereinafter, Lee, G. L., et al.).
Furthermore, peritoneal macrophages were stimulated with LPS with or without 5-MTP. After 24 h, proinflammatory cytokines were measured by ELISA.

[5] = Spleen weight/body weight ratio in LPS-challenged mice; type: in vivo
Experimental: Furthermore, spleen weight/body weight (SW/BW) ratio was also assessed (n=6 mice/group).

[6] = system: NF-κB p65; assay: Phospho-NF-κB p65 (Ser536) in RAW264.7 cells (immunoblot); type: cell-based, mouse; conditions: LPS 4 h
Experimental: Furthermore, after pretreating RAW264.7 cells with different concentrations of 5-MTP for 30 min, cells were stimulated with. LPS for 4 h. NF-κB p65, phospho-NF-κB p65 (p-p65) (Ser536) or β-actin was determined by immunoblotting with specific antibodies. Also, peritoneal macrophages were treated with LPS with or without 5-MTP (50 μM) for the indicated time. Phospho-p65 in the lysates was analyzed by an ELISA kit. The results are shown in FIG. 10D, in which the error bars denote mean ±SD (n=3). According to FIGS. 10C-10D, 5-MTP decreased LPS-induced phosphorylation of NF-κB p65 not only in RAW264.7 cells (FIG. 10C) but also in peritoneal macrophages (FIG. 10D).

[7] = system: LPS-induced cytokine production; type: cell-based, mouse
Experimental: Mouse RAW264.7 macrophages were from the American Type Culture Collection and cultured in DMEM containing 10% FBS. Cells were typically pre-incubated with or without 5-MTP (Sigma-Aldrich) for 30 min before LPS treatment, unless specified otherwise. The duration of LPS (100 ng/ml) treatment varied depending on the experiment.
as §2

[8] = system: CLP; assay: Cecal ligation and puncture (CLP) model, survival; type: in vivo, mice
Excerpt: To confirm the protective effect of 5-MTP in endotoxemia, we used cecal ligation and puncture (CLP) model in mice. 5-MTP-afforded protection was also observed in mice challenged with CLP.

[9] = system: peritoneal macrophages; assay: Ex vivo cytokine production of peritoneal macrophages from endotoxemic mice; type: in vivo; conditions: macrophages isolated 8 h after LPS, 5-MTP 23.4 mg/kg, cultured 24 h
Experimental: To further confirm that 5-MTP deactivates peritoneal macrophages during endotoxemia, we evaluated the effect of 5-MTP on IL-1β and IL-6 production ex vivo in peritoneal macrophages isolated from untreated or 5-MTP-treated endotoxemic mice. Peritoneal macrophages were isolated 8 h after LPS injection with saline or 5-MTP (23.4 mg/kg) and cultured with medium alone. After 24 h, proinflammatory cytokines were measured by ELISA (n=3).

[10] = system: IL-6 promoter; assay: IL-6 promoter-luciferase assay in RAW264.7 cells; type: cell-based, mouse; conditions: LPS 8 h
Experimental: as §1
Moreover, RAW264.7 cells and IL-6 promoter-luciferase plasmid transfected RAW264.7 cells were pretreated with different concentrations of 5-MTP for 30 min, followed by LPS stimulation for 8 h. IL-6 promoter activity was measured by luciferase assay. IL-6 level in culture supernatants was measured by ELISA.

[11] = system: lung tissues; assay: Lung histology (H&E) in LPS-treated mice; type: in vivo; conditions: LPS 60 mg/kg
Experimental: For histological studies, the lungs were perfused with saline, and immersed in formalin for 24 h. Tissue blocks were placed in formalin, dehydrated in a graded series of ethanol, embedded in paraffin, cut into 3 μm-thick serial sections, and stained with haematoxylin and eosin for detecting inflammatory cells, alveolar congestion and alveolar septal wall thickness and interstitial edema.
In addition, paraffin-embedded sections were prepared from lungs of mice injected with 60 mg/kg LPS with or without saline or 5-MTP for the indicated time. Lung tissues were stained with hematoxylin and eosin and examined under light microscopy. The results are shown in FIG. 5C, in which scale bars represent 100 μm.

COc1ccc2[nH]cc(C[C@H](N)C(=O)O)c2c1 [5-MTP, 5-methoxytryptophan]
TNF-α production [1]: inhibited | NF-κB promoter activity (transactivation) [2]: suppressed NF-κB transactivation in a concentration-dependent manner | LPS-induced COX-2 protein expression [3]: blocked | IL-1β production [4]: inhibited | IL-6 production [4]: inhibited | TNF-α production [4]: inhibited | spleen weight/body weight (SW/BW) ratio, spleen edema [5]: ameliorated spleen edema in a dose-dependent manner | LPS-induced phosphorylation of NF-κB p65 [6]: decreased | Suppressive activity in LPS-induced cytokine production [7]: + | duration of improved survival [8]: maintained up to day 6 | survival at day 2 ([8]; 5-MTP 30 mins after surgery): 44.4% | ex vivo IL-1β production [9]: significantly suppressed | ex vivo IL-6 production [9]: significantly suppressed | LPS-induced IL-6 promoter activity [10]: inhibited | LPS-induced lung pathological changes (leukocyte infiltration, septal wall thickening, edema, congestion) [11]: significantly alleviated
